Laboratory results published in PubChem BioAssay (NCI).
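GI50 = concentration required for 50% inhibition of growth. Definition used: TGI = concentration required for complete inhibition of growth.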

Key:
Assay in all cases: growth of human tumour cells (NCI), 384-well format
[1] = tested on: HOP-62 NSCLC
[2] = tested on: SW-620 colon
[3] = tested on: TK-10 renal
[4] = tested on: HOP-92 NSCLC
[5] = tested on: CAKI-1 renal
[6] = tested on: LOX IMVI melanoma
[7] = tested on: SF-268 CNS
[8] = tested on: M14 melanoma
[9] = tested on: HL-60(TB) leukemia
[10] = tested on: KM12 colon
[11] = tested on: NCI-H226 lung
[12] = tested on: IGROV1 ovarian
[13] = tested on: SNB-75 CNS
[14] = tested on: HT29 colon
[15] = tested on: BT-549 breast
[16] = tested on: A549 NSCLC
[17] = tested on: NCI-H460 NSCLC
[18] = tested on: CCRF-CEM leukemia
[19] = tested on: PC-3 prostate
[20] = tested on: SK-OV-3 ovarian
[21] = tested on: OVCAR-4 ovarian
[22] = tested on: MALME-3M melanoma
[23] = tested on: HCT-116 colon
[24] = tested on: SK-MEL-28 melanoma
[25] = tested on: SN12C renal
[26] = tested on: EKVX NSCLC
[27] = tested on: UACC-62 melanoma
[28] = tested on: MDA-MB-435 melanoma
[29] = tested on: MCF7 breast

With `CNC(=O)c1c(F)cccc1Nc1nc(Nc2cc3c(cc2OC)CCN3C(=O)CN(C)C)nc2[nH]ccc12` the GI50 [1] was 1830 nM, the TGI [1] was 3390 nM and the GI50 [2] was 1180 nM. The TGI [2] was 2440 nM, the GI50 [3] was 1860 nM and the TGI [3] was 3540 nM. For the same compound, the GI50 [4] was 1150 nM, the TGI [4] was 2420 nM and the GI50 [5] was 1820 nM. The TGI [5] was 3240 nM, the GI50 [6] was 1610 nM and the TGI [6] was 2970 nM. The GI50 [7] was 1300 nM, the TGI [7] was 2610 nM and the GI50 [8] was 1510 nM. The TGI [8] was 2840 nM, the GI50 [9] was 71.1 nM and the TGI [9] was 944 nM. The GI50 [10] was 1440 nM, the TGI [10] was 2770 nM and the GI50 [11] was 1740 nM. The TGI [11] was 3740 nM, the GI50 [12] was 1760 nM and the TGI [12] was 3270 nM. The GI50 [13] was 2000 nM, the TGI [13] was 3460 nM and the GI50 [14] was 181 nM. For the same compound, the TGI [14] was 1870 nM, the GI50 [15] was 1660 nM and the TGI [15] was 3040 nM. It also gave a GI50 [16] of 1410 nM, a TGI [16] of 2760 nM and a GI50 [17] of 1240 nM. It also gave a TGI [17] of 2530 nM, a GI50 [18] of 387 nM and a TGI [18] of 1220 nM. For the same compound, the GI50 [19] was 2190 nM, the TGI [19] was 4450 nM and the GI50 [20] was 1970 nM. The TGI [20] was 3450 nM, the GI50 [21] was 1990 nM and the TGI [21] was 3500 nM. The GI50 [22] was 1250 nM, the TGI [22] was 2510 nM and the GI50 [23] was 1440 nM. For the same compound, the TGI [23] was 2790 nM, the GI50 [24] was 1870 nM and the TGI [24] was 3270 nM. It also gave a GI50 [25] of 2050 nM, a TGI [25] of 3500 nM and a GI50 [26] of 1600 nM. For the same compound, the TGI [26] was 3090 nM, the GI50 [27] was 1560 nM and the TGI [27] was 2910 nM. For the same compound, the GI50 [28] was 1510 nM, the TGI [28] was 2860 nM and the GI50 [29] was 210 nM. It also gave a TGI [29] of 1720 nM.
